Consider 29 compounds from patent publication US20240400586A1, “HETEROARYL DERIVATIVE PARP INHIBITOR AND USE THEREOF” (HAISCO PHARMACEUTICAL GROUP CO., LTD., priority 2021, published 2024).

The target in one experiment is PARP-1 enzyme (Homo sapiens (Human), UniProt P09874). The experiment can be described thus: PARP1 enzyme activity test (BPS Bioscience chemiluminescence kit). Type of experiment: biochemical. The text has this: Inhibition %=(1−(RLUsample−RLUmin)/(RLUmax−RLUmin))×100% (formula 1)
For experiment [1], the system named is breast tumor cells MDA-MB-436. The experiment can be described thus: MDA-MB-436 cell activity test (CellTiter-Glo, 7 days). Format: cell-based. To be noted: Homo sapiens, MDA-MB-436, 168 h, 7 days incubation; for inhibition at 10 µM: read-out: MDA-MB-436 Max inh. % 10 μM; for IC50: read-out: MDA-MB-436 cell inhibitory activity IC50. As for the experimental part:
Breast tumor cells MDA-MB-436 were purchased from ATCC, the culture medium was Leibovitz's L-15+10% FBS, and the cells were cultured in a CO2-free incubator at 37° C. On day 1, the cells in the exponential growth phase were collected, and the cell suspension was adjusted to 4000 cells/135 μL with the culture medium. 135 μL of the cell suspension was added to each well of a 96-well cell culture plate and incubated overnight. On day 2, compounds at different concentrations were added, and the plate was placed in the incubator and incubated for 7 days. After the incubation was completed, according to operation instructions for a CellTiter-Glo kit (Promega, G7573), 75 μL of CTG solution, which was already pre-melted and equilibrated to room temperature, was added to each well, and the mixture was uniformly mixed for 2 min using a microplate shaker. The plate was placed at room temperature for 10 min, and then […] were measured using an Envision2104 plate reader (PerkinElmer). The inhibition rate was calculated using formula (1), where RLUcompound was the readout of the drug treated group, RLUcontrol was the average value of the vehicle control group, and RLUblank was the average value of the cell-free well. The IC50 value was calculated using GraphPad Prism software.

Sequence of PARP-1 enzyme (P09874 whole entry): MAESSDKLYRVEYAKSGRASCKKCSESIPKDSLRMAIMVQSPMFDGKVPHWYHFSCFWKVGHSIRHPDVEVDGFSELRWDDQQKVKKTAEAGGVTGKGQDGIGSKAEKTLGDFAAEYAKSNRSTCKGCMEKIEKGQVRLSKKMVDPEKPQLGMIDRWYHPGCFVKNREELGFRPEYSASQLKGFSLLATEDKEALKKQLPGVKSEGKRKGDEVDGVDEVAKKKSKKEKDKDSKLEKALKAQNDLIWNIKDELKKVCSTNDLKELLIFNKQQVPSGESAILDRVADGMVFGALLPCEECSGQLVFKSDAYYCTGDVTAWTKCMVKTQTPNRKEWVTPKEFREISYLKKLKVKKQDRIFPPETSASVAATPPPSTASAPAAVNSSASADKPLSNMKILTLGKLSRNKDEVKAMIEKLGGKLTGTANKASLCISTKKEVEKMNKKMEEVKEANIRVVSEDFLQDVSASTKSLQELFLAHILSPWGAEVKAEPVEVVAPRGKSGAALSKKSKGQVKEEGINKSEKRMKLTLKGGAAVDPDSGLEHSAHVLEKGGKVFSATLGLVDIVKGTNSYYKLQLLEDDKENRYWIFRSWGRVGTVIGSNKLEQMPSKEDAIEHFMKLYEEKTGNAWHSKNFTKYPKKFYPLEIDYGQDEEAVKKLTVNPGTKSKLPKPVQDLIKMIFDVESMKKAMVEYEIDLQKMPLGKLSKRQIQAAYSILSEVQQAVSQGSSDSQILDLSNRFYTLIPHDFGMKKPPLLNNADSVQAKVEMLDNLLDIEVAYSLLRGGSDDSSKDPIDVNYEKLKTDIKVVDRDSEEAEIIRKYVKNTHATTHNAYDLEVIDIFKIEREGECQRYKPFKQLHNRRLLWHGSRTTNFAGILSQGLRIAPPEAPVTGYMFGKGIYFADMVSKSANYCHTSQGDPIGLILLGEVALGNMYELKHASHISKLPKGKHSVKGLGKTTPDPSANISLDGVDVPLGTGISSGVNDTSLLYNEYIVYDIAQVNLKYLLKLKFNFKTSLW

In general, IC50 refers to the midpoint of a concentration-inhibition curve. Consider `CCc1cc2ncc(CN3CCN(c4ccc(NC(=O)[C@@H]5CC5(F)F)nc4)CC3)cc2[nH]c1=O` (single isomer, unassigned) [Compound 50], for which the half-inhibitory concentration (IC50) at PARP-1 enzyme is 0.69 nM; in experiment [1], 3 nM. Moreover, the inhibition at 10 µM in experiment [1] is 92.9%.
Regarding `CCc1cc2ncc(CN3CCN(c4ccc5c(c4)CN(C)C5=O)CC3)cc2[nH]c1=O` [Compound 1, 3-ethyl-7-((4-(2-methyl-1-oxoisoindolin-5-yl)piperazin-1-yl)methyl)-1,5-naphthyridin-2 (1H)-one], the IC50 on PARP-1 enzyme is 3.66 nM.
At PARP-1 enzyme, `CCc1cc2ncc(CN3CCN(c4cnc(C(=O)NC)cn4)CC3)cc2[nH]c1=O` [Compound 2, 5-(4-((7-ethyl-6-oxo-5,6-dihydro-1,5-naphthyridin-3-yl)methyl)piperazin-1-yl)-N-methylpyrazine-2-carboxamide] came in with an IC50 of 2.01 nM.
On the same count and under the same terms, then `CCc1cc2ncc(CN3CCN(c4ccc(-c5nnc(C)o5)nc4)CC3)cc2[nH]c1=O` [Compound 3, 3-ethyl-7-((4-(6-(5-methyl-1,3,4-oxadiazol-2-yl)pyridin-3-yl)piperazin-1-yl)methyl)-1,5-naphthyridin-2 (1H)-one], with 1.33 nM.
Still for that read-out and setting: the result for `CCc1cc2ncc(CN3CCN(c4ccc(NC(C)=O)nc4)CC3)cc2[nH]c1=O` [Compound 7, N-(5-(4-((7-ethyl-6-oxo-5,6-dihydro-1,5-naphthyridin-3-yl)methyl)piperazin-1-yl)pyridin-2-yl)acetamide] reads 0.32 nM; that for `CCc1cc2ncc(CN3CCN(c4ccc(NC(=O)OC)nc4)CC3)cc2[nH]c1=O` [Compound 8, methyl(5-(4-((7-ethyl-6-oxo-5,6-dihydro-1,5-naphthyridin-3-yl)methyl)piperazin-1-yl)pyridin-2-yl)carbamate], 0.58 nM; that for `CCc1cc2ncc(CN3CCN(c4cnc(C(=O)NC)cc4F)CC3)cc2[nH]c1=O` [Compound 12, 5-(4-((7-ethyl-6-oxo-5,6-dihydro-1,5-naphthyridin-3-yl)methyl)piperazin-1-yl)-4-fluoro-N-methylpicolinamide], 1.6 nM.
On the same count and under the same terms, the result for `CCc1cc2ncc(CN3CCN(c4cnc(C(=O)NC5CC5)cc4F)CC3)cc2[nH]c1=O` [Compound 13, N-cyclopropyl-5-(4-((7-ethyl-6-oxo-5,6-dihydro-1,5-naphthyridin-3-yl)methyl)piperazin-1-yl)-4-fluoropicolinamide] reads 0.76 nM; that for `CCc1cc2ncc(CN3CCN(c4ccc(NC(=O)NC)nc4)CC3)cc2[nH]c1=O` [Compound 14, 1-(5-(4-((7-ethyl-6-oxo-5,6-dihydro-1,5-naphthyridin-3-yl)methyl)piperazin-1-yl)pyridin-2-yl)-3-methylurea], 0.71 nM.
`CCc1cc2ncc(CN3CCN(c4cn5cc(C)nc5cn4)CC3)cc2[nH]c1=O` [Compound 15, 3-ethyl-7-((4-(2-methylimidazo[1,2-a]pyrazin-6-yl)piperazin-1-yl)methyl)-1,5-naphthyridin-2 (1H)-one] registered an IC50 on PARP-1 enzyme of 0.65 nM.
Compound `CCc1cc2ncc(CN3CCN(c4ccc(C(=O)NC5CCNCC5)nc4)CC3)cc2[nH]c1=O` [Compound 16, 5-(4-((7-ethyl-6-oxo-5,6-dihydro-1,5-naphthyridin-3-yl)methyl)piperazin-1-yl)-N-(piperidin-4-yl)picolinamide] showed an IC50 at PARP-1 enzyme of 0.51 nM.
On the same count and under the same terms, the result for `CCc1cc2ncc(CN3CCN(c4ccc(C(=O)NC5CCN(C)CC5)nc4)CC3)cc2[nH]c1=O` [Compound 17, 5-(4-((7-ethyl-6-oxo-5,6-dihydro-1,5-naphthyridin-3-yl)methyl)piperazin-1-yl)-N-(1-methylpiperidin-4-yl)picolinamide] reads 0.35 nM; that for `CCc1cc2ncc(CN3CCN(c4ccc(C(=O)N[C@@H]5CCNC5)nc4)CC3)cc2[nH]c1=O` [Compound 18, (R)-5-(4-((7-ethyl-6-oxo-5,6-dihydro-1,5-naphthyridin-3-yl)methyl)piperazin-1-yl)-N-(pyrrolidin-3-yl)picolinamide], 0.33 nM.
In the case of `CCc1cc2ncc(CN3CCN(c4ccc(C(=O)N[C@H]5CCNC5)nc4)CC3)cc2[nH]c1=O` [Compound 20, (S)-5-(4-((7-ethyl-6-oxo-5,6-dihydro-1,5-naphthyridin-3-yl)methyl)piperazin-1-yl)-N-(pyrrolidin-3-yl)picolinamide], the IC50 against PARP-1 enzyme was found to be 0.32 nM.
The compound `CCc1cc2ncc(CN3CCN(c4ccc5nc(C)cn5n4)CC3)cc2[nH]c1=O` [Compound 27, 3-ethyl-7-((4-(2-methylimidazo[1,2-b]pyridazin-6-yl)piperazin-1-yl)methyl)-1,5-naphthyridin-2 (1H)-one] displayed an IC50 on PARP-1 enzyme of 0.75 nM.
On the same count and under the same terms, the result for `CCc1cc2ncc(CN3CCN(c4ccc(-c5cnn[nH]5)nc4)CC3)cc2[nH]c1=O` [Compound 29, 7-((4-(6-(1H-1,2,3-triazol-5-yl)pyridin-3-yl)piperazin-1-yl)methyl)-3-ethyl-1,5-naphthyridin-2 (1H)-one] reads 0.45 nM; that for `CCc1cc2ncc(CN3CCN(c4ccc(-c5ccn[nH]5)nc4)CC3)cc2[nH]c1=O` [Compound 30, 7-((4-(6-(1H-pyrazol-5-yl)pyridin-3-yl)piperazin-1-yl)methyl)-3-ethyl-1,5-naphthyridin-2 (1H)-one], 0.45 nM.
On the same count and under the same terms, then `CCc1cc2ncc(CN3CCN(c4ccc5nc(C)nn5c4)CC3)cc2[nH]c1=O` [Compound 31, 3-ethyl-7-((4-(2-methyl-[1,2,4]triazolo[1,5-a]pyridin-6-yl)piperazin-1-yl)methyl)-1,5-naphthyridin-2 (1H)-one], with 1.7 nM.
Compound `CCc1cc2ncc(CN3CCN(c4ccc(Nc5ccn(C)n5)nc4)CC3)cc2[nH]c1=O` [Compound 32, 3-ethyl-7-((4-(6-((1-methyl-1H-pyrazol-3-yl)amino)pyridin-3-yl)piperazin-1-yl)methyl)-1,5-naphthyridin-2 (1H)-one] yielded an IC50 against PARP-1 enzyme of 2 nM.
For the compound `CCc1cc2ncc(CN3CCN(c4ccc(NC(=O)[C@H]5C[C@H]5F)nc4)CC3)cc2[nH]c1=O` [Compound 34, (1R,2R)—N-(5-(4-((7-ethyl-6-oxo-5,6-dihydro-1,5-naphthyridin-3-yl)methyl)piperazin-1-yl)pyridin-2-yl)-2-fluorocyclopropane-1-carboxamide], in experiment [1], the inhibition at 10 µM worked out at 81.9% and the IC50 turned out to be 16.5 nM.
For `CCc1cc2ncc(CN3CCN(c4ccc(NC(=O)[C@@H]5C[C@H]5F)nc4)CC3)cc2[nH]c1=O` [Compound 35, (1S,2R)—N-(5-(4-((7-ethyl-6-oxo-5,6-dihydro-1,5-naphthyridin-3-yl)methyl)piperazin-1-yl)pyridin-2-yl)-2-fluorocyclopropane-1-carboxamide] the same measures were 90.4% and 9.8 nM.
`CCc1cc2ncc(CN3CCN(c4ccc(NC(=O)[C@H]5CCN(C)C5)nc4)CC3)cc2[nH]c1=O` [Compound 36, (S)—N-(5-(4-((7-ethyl-6-oxo-5,6-dihydro-1,5-naphthyridin-3-yl)methyl)piperazin-1-yl)pyridin-2-yl)-1-methylpyrrolidine-3-carboxamide] came in with a half-inhibitory concentration (IC50) at PARP-1 enzyme of 0.58 nM.
On the same count and under the same terms, then `CCc1cc2ncc(CN3CCN(c4cn5cc(C(F)(F)F)nc5cn4)CC3)cc2[nH]c1=O` [Compound 43, 3-ethyl-7-((4-(2-(trifluoromethyl)imidazo[1,2-a]pyrazin-6-yl)piperazin-1-yl)methyl)-1,5-naphthyridin-2 (1H)-one], with 0.93 nM; and `CCc1cn2cc(N3CCN(Cc4cnc5cc(CC)c(=O)[nH]c5c4)CC3)ncc2n1` [Compound 44, 3-ethyl-7-((4-(2-ethylimidazo[1,2-a]pyrazin-6-yl)piperazin-1-yl)methyl)-1,5-naphthyridin-2 (1H)-one], with 0.92 nM.
On the same count and under the same terms, the result for `CCc1cc2ncc(CN3CCN(c4cn5cc(C(F)F)nc5cn4)CC3)cc2[nH]c1=O` [Compound 45] reads 0.73 nM; that for `CCc1cc2ncc(CN3CCN(c4ccc(C(=O)NC5CN(c6ccccc6)C5)nc4)CC3)cc2[nH]c1=O` [Compound 46, 5-(4-((7-ethyl-6-oxo-5,6-dihydro-1,5-naphthyridin-3-yl)methyl)piperazin-1-yl)-N-(1-phenylazetidin-3-yl)picolinamide], 0.56 nM.
`CCc1cc2ncc(CN3CCN(c4ccc(C(=O)Nc5ccn(C)n5)nc4)CC3)cc2[nH]c1=O` [Compound 48, 5-(4-((7-ethyl-6-oxo-5,6-dihydro-1,5-naphthyridin-3-yl)methyl)piperazin-1-yl)-N-(1-methyl-1H-pyrazol-3-yl)picolinamide] gave an IC50 at PARP-1 enzyme of 0.35 nM.
For `CCc1cc2ncc(CN3CCN(c4ccc(C(=O)NCCOC5CC5(F)F)nc4)CC3)cc2[nH]c1=O` (centres unmarked) [Compound 52, N-(2-(2,2-difluorocyclopropoxy)ethyl)-5-(4-((7-ethyl-6-oxo-5,6-dihydro-1,5-naphthyridin-3-yl)methyl)piperazin-1-yl)picolinamide], in experiment [1], the inhibition at 10 µM is 92.4% and the IC50 turned out to be 3.1 nM.
On to `CCc1cc2ncc(CN3CCN(c4ccc(C(=O)NCCOC5CC5)nc4)CC3)cc2[nH]c1=O` [Compound 53, N-(2-cyclopropoxyethyl)-5-(4-((7-ethyl-6-oxo-5,6-dihydro-1,5-naphthyridin-3-yl)methyl)piperazin-1-yl)picolinamide], for which, in experiment [1], the inhibition at 10 µM was determined as 90.6% and the IC50 worked out at 2.2 nM.
